In patent US6521649B1 (priority 1995, dated 2003):
Counter-ions that a name gives are not always drawn.

melting point | Structure (SMILES)
250 °C (dec.) | CCc1nnsc1C(=O)O (as salt: sodium) [compound 176, sodium 4-ethyl-1,2,3-thiadiazole-5-carboxylate]
105 to 107 °C | CCc1nnsc1C(=O)O [compound 178, t-butylammonium 4-ethyl-1,2,3-thiadiazole-5-carboxylate]
